Source: US5041567A, “Antibacterial monic acid derivatives” (Beecham Group plc, priority 1982, dated 1991)
Converted amounts (≈) assume the structure as drawn. Where two headings read alike, the source gives them in different places.

Experiments:
M. suipneumoniae NB12 = test: MIC against mycoplasma in vitro; format: cell-based; settings: Mesomycoplasma hyopneumoniae, NB12, 144 h
M. suipneumoniae HK(2) = test: MIC against mycoplasma in vitro; format: cell-based; settings: Mesomycoplasma hyopneumoniae, 144 h
[1] = test system: M. suipneumoniae J2206/183^b; test: MIC against mycoplasma in vitro; format: cell-based; settings: Mesomycoplasma hyopneumoniae, 144 h
M. suipneumoniae MS 16 = test: MIC against mycoplasma in vitro; format: cell-based; settings: Mesomycoplasma hyopneumoniae, MS16, 144 h
M. suipneumoniae LABER = test: MIC against mycoplasma in vitro; format: cell-based; settings: Mesomycoplasma hyopneumoniae, 144 h
M. suipneumoniae UCD 1 = test: MIC against mycoplasma in vitro; format: cell-based; settings: Mesomycoplasma hyopneumoniae, UCD1, 144 h
M. suipneumoniae TAM 6N = test: MIC against mycoplasma in vitro; format: cell-based; settings: Mesomycoplasma hyopneumoniae, TAM6N, 144 h
[2] = test system: M. suipneumoniae ATCC 25095; test: MIC against mycoplasma in vitro; format: cell-based; settings: Mesomycoplasma hyopneumoniae, ATCC25095, 144 h
M. hyorhinis ATCC 23234 = test: MIC against mycoplasma in vitro; format: cell-based; settings: Mesomycoplasma hyorhinis, ATCC23234, 144 h
M. hyorhinis ATCC 25021 = test: MIC against mycoplasma in vitro; format: cell-based; settings: Mesomycoplasma hyorhinis, ATCC25021, 144 h
[3] = test system: M. hyosynoviae ATCC 25591; test: MIC against mycoplasma in vitro; format: cell-based; settings: 144 h
M. bovis NCTC 10131 = test: microbe, parasite or virus in culture; format: cell-based; settings: NCTC10131, 144 h
[4] = test system: M. bovigenitalium ATCC 14173; test: MIC against mycoplasma in vitro; format: cell-based; settings: 144 h
P. mirabilis 889 = test: MIC against human bacteria in vitro; format: cell-based
K. aerogenes A = test: MIC against human bacteria in vitro; format: cell-based; settings: Klebsiella aerogenes
[5] = test system: Ps. aeruginosa NCTC 10662; test: MIC against human bacteria in vitro; format: cell-based; settings: Pseudomonas aeruginosa
[6] = test system: Haemophilus influenzae Wy21; test: MIC against human bacteria in vitro; format: cell-based
[7] = test system: Neisseria catarrhalis 1502; test: MIC against human bacteria in vitro; format: cell-based; settings: Neisseria catarrhalis 1502; 5% chocolated horse blood agar, 18 hours; read-out: MIC
[8] = test system: Corynebacterium xerosis 9755; test: MIC against human bacteria in vitro; format: cell-based
Sarcina lutea 8340 = test: MIC against human bacteria in vitro; format: cell-based
Staph. aureus Russell = test: MIC against human bacteria in vitro; format: cell-based; settings: Staphylococcus aureus
Staph. aureus W2827 = test: MIC against human bacteria in vitro; format: cell-based; settings: Staphylococcus aureus
Strep. faecalis I = test: MIC against human bacteria in vitro; format: cell-based; settings: Enterococcus faecalis
Strep. agalactiae 2788-B = test: MIC against human bacteria in vitro; format: cell-based; settings: Streptococcus agalactiae; Strep. agalactiae 2788-B; 5% chocolated horse blood agar, 18 hours; read-out: MIC
Strep. pneumoniae CN33 = test: MIC against human bacteria in vitro; format: cell-based; settings: Streptococcus pneumoniae; Strep. pneumoniae CN33; 5% chocolated horse blood agar, 18 hours; read-out: MIC
Bord. bronchiseptica B08 = test: MIC against veterinary bacteria in vitro; settings: Bordetella bronchiseptica, B08, 18 h
Method: (§1) The activity of the compounds of the Examples against various veterinarily important bacteria, was assayed in vitro using two-fold serial dilutions in Diagnostic Sensitivity Test Agar inoculated with 10^4 organisms.

Bord. bronchiseptica B09 = test: MIC against veterinary bacteria in vitro; settings: Bordetella bronchiseptica, B09, 18 h
Method: as §1

Past. multocida PA1 = test: MIC against veterinary bacteria in vitro; settings: Pasteurella multocida, PA1, 18 h
Method: as §1

Past. multocida PA2 = test: MIC against veterinary bacteria in vitro; settings: Pasteurella multocida, PA2, 18 h
Method: as §1

Past. haemolytica PA5 = test: MIC against veterinary bacteria in vitro; settings: Mannheimia haemolytica, PA5, 18 h
Method: as §1

[9] = test system: Erysipelothrix rhusiopathiae NCTC 8163; test: MIC against veterinary bacteria in vitro; settings: Erysipelothrix rhusiopathiae, NCTC8163, 18 h
Method: as §1

[10] = test system: Corynebacterium pyogenes CY1; test: MIC against veterinary bacteria in vitro; settings: CY1, 18 h
Method: as §1

[11] = test system: Staph. aureus B4 (pen. resistant); test: MIC against veterinary bacteria in vitro; settings: Staphylococcus aureus, 18 h
Method: as §1

[12] = test system: Strep. suis (group D) SPS11; test: MIC against veterinary bacteria in vitro; settings: Streptococcus suis, 18 h
Method: as §1

Strep. dysgalactiae SPD1 = test: MIC against veterinary bacteria in vitro; settings: Streptococcus dysgalactiae, SPD1, 18 h
Method: as §1

| SMILES | MIC (M. suipneumoniae NB12) [µg/mL] | MIC (M. suipneumoniae HK(2)) [µg/mL] | MIC [1] [µg/mL] | MIC (M. suipneumoniae MS 16) [µg/mL] | MIC (M. suipneumoniae LABER) [µg/mL] | MIC (M. suipneumoniae UCD 1) [µg/mL] | MIC (M. suipneumoniae TAM 6N) [µg/mL] | MIC [2] [µg/mL] | MIC [3] [µg/mL] | MIC (M. bovis NCTC 10131) [µg/mL] | MIC [4] [µg/mL] | MIC [7] [µg/mL] | MIC (Strep. agalactiae 2788-B) [µg/mL] | MIC (Strep. pneumoniae CN33) [µg/mL] | MIC (Bord. bronchiseptica B08) [µg/mL] | MIC (Bord. bronchiseptica B09) [µg/mL] | MIC (Past. multocida PA1) [µg/mL] | MIC (Past. multocida PA2) [µg/mL] | MIC (Past. haemolytica PA5) [µg/mL] | MIC [9] [µg/mL] | further results |
| --- | --- | --- | --- | --- | --- | --- | --- | --- | --- | --- | --- | --- | --- | --- | --- | --- | --- | --- | --- | --- | --- |
| CSc1ccc(-c2cnc(/C=C(\C)C[C@@H]3OC[C@H](C[C@@H]4O[C@H]4[C@@H](C)[C@H](C)O)[C@@H](O)[C@H]3O)o2)cc1 [Example 9, 5-p-methylthiophenyl-2-(1-normon-2-yl)oxazole A] | 0.5 (≈ 1.02 µM) | 0.5 (≈ 1.02 µM) | 0.5 (≈ 1.02 µM) | 0.5 (≈ 1.02 µM) | 0.5 (≈ 1.02 µM) | 0.5 (≈ 1.02 µM) | 0.5 (≈ 1.02 µM) | 0.5 (≈ 1.02 µM) | 0.5 (≈ 1.02 µM) | 0.05 (≈ 0.102 µM) | 0.1 (≈ 0.204 µM) | 10 (≈ 20.4 µM) | 10 (≈ 20.4 µM) | 10 (≈ 20.4 µM) | 40 (≈ 81.7 µM) | 40 (≈ 81.7 µM) | 20 (≈ 40.8 µM) | 5 (≈ 10.2 µM) | 40 (≈ 81.7 µM) | 80 (≈ 163 µM) | MIC (M. hyorhinis ATCC 23234; M. hyorhinis ATCC 23234, 6 days, 37° C., read-out: MIC): 0.5 µg/mL (≈ 1.02 µM); MIC (M. hyorhinis ATCC 25021; M. hyorhinis ATCC 25021, 6 days, 37° C., read-out: MIC): 0.5 µg/mL (≈ 1.02 µM); MIC (P. mirabilis 889; Proteus mirabilis, 889, 18 h): > 100 µg/mL; MIC (K. aerogenes A; 18 h): > 100 µg/mL; MIC ([5]; NCTC10662, 18 h): > 100 µg/mL; MIC ([6]; Haemophilus influenzae, WY21, 18 h): 50 µg/mL (≈ 102 µM); MIC ([8]; Corynebacterium xerosis, 9755, 18 h): > 100 µg/mL; MIC (Sarcina lutea 8340; Micrococcus luteus, 8340, 18 h): > 100 µg/mL; MIC (Staph. aureus Russell; 18 h): 5 µg/mL (≈ 10.2 µM); MIC (Staph. aureus W2827; W2827, 18 h): 5 µg/mL (≈ 10.2 µM); MIC (Strep. faecalis I; 18 h): > 100 µg/mL; MIC [10]: 80 µg/mL (≈ 163 µM); MIC [11]: 1.25 µg/mL (≈ 2.55 µM); MIC [12]: 10 µg/mL (≈ 20.4 µM); MIC (Strep. dysgalactiae SPD1): 0.625 µg/mL (≈ 1.28 µM) |
| C/C(=C\c1ncc(-c2ccc(S(C)(=O)=O)cc2)o1)C[C@@H]1OC[C@H](C[C@@H]2O[C@H]2[C@@H](C)[C@H](C)O)[C@@H](O)[C@H]1O [Example 10] | 0.05 (≈ 0.0959 µM) | 0.05 (≈ 0.0959 µM) | 0.05 (≈ 0.0959 µM) | 0.025 (≈ 0.0479 µM) | 0.025 (≈ 0.0479 µM) | 0.05 (≈ 0.0959 µM) | 0.05 (≈ 0.0959 µM) | 0.025 (≈ 0.0479 µM) | 0.05 (≈ 0.0959 µM) | 0.01 (≈ 0.0192 µM) | 0.025 (≈ 0.0479 µM) | 8 (≈ 15.3 µM) | 8 (≈ 15.3 µM) | 8 (≈ 15.3 µM) | > 80 | 40 (≈ 76.7 µM) | 5 (≈ 9.59 µM) | 1.25 (≈ 2.4 µM) | 40 (≈ 76.7 µM) | > 80 | MIC (M. hyorhinis ATCC 23234): 0.025 µg/mL (≈ 0.0479 µM); MIC (M. hyorhinis ATCC 25021): 0.025 µg/mL (≈ 0.0479 µM); MIC (P. mirabilis 889; Proteus mirabilis, P. mirabilis 889, 5% chocolated horse blood agar, 18 hours, read-out: MIC): > 128 µg/mL; MIC (K. aerogenes A; K. aerogenes A, 5% chocolated horse blood agar, 18 hours, read-out: MIC): > 128 µg/mL; MIC ([5]; NCTC10662, Ps. aeruginosa NCTC 10662, 5% chocolated horse blood agar, 18 hours, read-out: MIC): > 128 µg/mL; MIC ([6]; Haemophilus influenzae Wy21, 5% chocolated horse blood agar, 18 hours, read-out: MIC): 2 µg/mL (≈ 3.83 µM); MIC ([8]; Corynebacterium xerosis 9755, 5% chocolated horse blood agar, 18 hours, read-out: MIC): > 128 µg/mL; MIC (Sarcina lutea 8340; Micrococcus luteus, Sarcina lutea 8340, 5% chocolated horse blood agar, 18 hours, read-out: MIC): > 128 µg/mL; MIC (Staph. aureus Russell; Staph. aureus Russell, 5% chocolated horse blood agar, 18 hours, read-out: MIC): 8 µg/mL (≈ 15.3 µM); MIC (Staph. aureus W2827; Staph. aureus W2827, 5% chocolated horse blood agar, 18 hours, read-out: MIC): 8 µg/mL (≈ 15.3 µM); MIC (Strep. faecalis I; Strep. faecalis I, 5% chocolated horse blood agar, 18 hours, read-out: MIC): > 128 µg/mL; MIC [10]: > 80 µg/mL; MIC [11]: 5 µg/mL (≈ 9.59 µM); MIC [12]: 10 µg/mL (≈ 19.2 µM); MIC (Strep. dysgalactiae SPD1): 2.5 µg/mL (≈ 4.79 µM) |
